5 molecules from US11680078B2, “Anticancer compounds” (GODAVARI BIOREFINERIES LIMITED, priority 2017, dated 2023) can be followed below.

Broadly, the IC50 is the midpoint of a concentration-inhibition curve. Read a low IC50 as greater potency in that assay.

Each structure is given as a SMILES string. “And” between values parts separate entries of the source, which are not always exact repeats. Equal entries are not always repeated.

Holding throughout (type): cell-based
The test system of assay [1] is MDAMB231. The assay is described as follows: MTT antiproliferative assay, MDAMB231. To be noted: MDAMB231 breast cell line, 48 hrs drug incubation. On the procedure:
(§1) MTT assay is a simple and sensitive assay where, metabolic reducing activity of the cells is measured. The increase of this activity in time is taken as a parameter of cell growth. If treatment with a drug impairs this increase, the action may be a consequence of growth inhibition, cell killing or both. The compounds of Formula V to XIV of the present invention, standard cytotoxic drug (e.g. Cisplatin) were tested at different concentrations (1, 0.1, 0.01, 0.001 mM) using breast and prostate cancer cell lines. All cell lines were cultured in a 37° C. incubator with a 5% CO2 environment. Compounds were dissolved in DMSO with a concentration of 0.1M (stock solution). Cells were seeded into 96-well plates at suitable plating efficiency.
(§2) Following Plating Efficiencies were Standardized for MTT Assay:
(§3) The MTT procedure followed was as follows. Briefly, the cells were plated in 96 well plate as per predetermined plating efficiency (Table 1) The plates were then incubated for 24 hrs in 5% CO2 atmosphere at 37° C. Appropriate concentrations of the drugs were then added to the plate and further incubation was carried out for 48 hrs (in 5% CO2 atmosphere at 37° C.). The assay plate was then centrifuged twice at 3000 rpm for 3 mins and supernatant was then discarded. 100 ul of MTT solution (0.5 mg/ml) was then added to each well of the plate and it was further incubated for 4 hrs (in 5% CO2 atmosphere at 37° C.) Following 4 hr incubation, the plate was then centrifuged twice, and supernatant was aspirated off very carefully. 200 ul of DMSO was then added to each well to solubilize. MTT crystals and mixed well by shaking the plate. XY graph of log Percent viability was then plotted against log drug concentration. […] (Drug concentration inhibiting the 50% of cell population) was then calculated by regression analysis.

Assay [2] concerns PC3. The assay is described as follows: MTT antiproliferative assay, PC3. To be noted: PC3 prostate cell line, 48 hrs drug incubation. The protocol: as §1, §2, §3
For orientation: Tetrazolium dyes change colour on reduction, which living cells bring about.

Another assay relates to DU145. As to the kind of experiment: MTT antiproliferative assay, DU145. To be noted: DU145 prostate cell line, 48 hrs drug incubation. The protocol:
as §1, §2, §3

The test system of assay [3] is MDAMB231. As to the kind of experiment: Soft Agar colony-formation Assay, MDAMB231. To be noted: MDAMB231 breast cell line, 1 week. The protocol: (§4) The Soft Agar Colony-formation Assay is an anchorage-independent growth assay in soft agar, which is one of the most stringent assays for detecting malignant transformation of cells. For this assay, malignant cells are cultured with appropriate controls in soft agar medium for 1-2 weeks. Following this incubation period, formed colonies can either be analyzed morphologically using cell stain and quantifying the number of colonies formed.
(§5) Briefly, for Soft Agar Assay a mixture of 50 ul of 2× medium (taken appropriately as per cell line) and 50 ul of 1.2% Bacto Agar were plated on to each well of 96 well micro titer assay plate. 10 ul of cells (Of specific plating efficiency pre-standardized for respective cell line) were mixed with 20 ul of 2× medium and 30 ul of 0.8% of Bacto Agar and 1.6 ul of drug (of appropriate concentration) in a vial and transferred to the solidified pre-layers of the assay plates. The cells were then allowed to grow and form colonies at 37° C. and 5% CO2 for 1 week. An intermittent feeding with 50 ul of appropriate 2× medium was performed after 3 days of experimental set up. 16 ul of Alamar Blue (1.5 mg/ml) was then added to all the wells to quantify the developed colonies. The plates were incubated for 24 hrs at 37° C. Absorbance was then measured at 630 nm. XY graph of log Percent viability was then plotted against log drug concentration. IC50 (Drug concentration inhibiting the 50% of cell population) was then calculated by regression analysis.
(§6) Following Plating Efficiencies Were Standardized for Soft Agar Assay: […]

The test system of assay [4] is PC3. The assay is described as follows: Soft Agar colony-formation Assay, PC3. To be noted: PC3 prostate cell line, 1 week. On the procedure:
as §4, §5, §6

For the next assay, the system named is spheres of MDAMB231. As to the kind of experiment: In vitro sphere-forming assay, MDAMB231 in Mammosphere media. The conditions noted are these: 2000 cells/well, n = 6 ± S.D. From the text: (§7) Sphere assay measures the ability of Cancer Stein Cells to form spheres in specially designed serum-free medium. We have used this assay to measure the killing efficiency of the test compounds as compared to the standard chemotherapeutic drug, Cisplatin.
(§8) Materials and Reagents:50× B27 Supplement (Life Technologies, Invitrogen, Catalog No.: 17502-044), Fibroblast Growth Factor (FGF) (Sigma-Aldrich, Catlog No.: F029125), Epidermal Growth Factor (EGF) (Sigma-Aldrich, Catlog No.: E9644), Insulin (Sigma, Catlog No.: 19278), Dulbecco's Modified Eagle Medium/F12 (HiMedia Catlog No.: AL139-6), Dulbecco's Phosphate Buffered Saline (HiMedia Catlog No.: TL1006), Trypan Blue (TC193), Prostate Epithelial Media (LONZA, Catlog No.: CC-3166) MEGM (LONZA, Catlog No.: CC-3051), Heparin (Sigma, Catlog No.: H3393), Penstrep (HiMedia, Catlog No.: A002)
Mammosphere Media Preparation (For 100 mL): 1 g methyl cellulose autoclaved with magnetic stirrer Plain media (MEBM), 100 mL added and dissolved under magnetic stirring. After complete dissolution, add: FGF-80 μL, EGF-40 μL, Penstrep-1 mL, Heparin-400 μL.
(§9) Procedure: —The cells were trypsinised and made into single-cell suspension by passing through cell strainers ([…], respectively), The cells were diluted at the concentration of 2000 cells/100 μL and suspended in either Mammosphere (for breast cell lines) or Prostosphere (for prostate cell lines). 100 μL of this suspension was added into each well of 96-well suspension plates and incubated at 37° C., 5% CO2 for 24 hrs. Appropriate concentrations of the drugs (2 μL) were added into respective wells with 100 μL of stem cell culture medium. Plates were incubated at 37° C., 5% CO2 for 72 hrs. After incubation 2.5 μL of the respective drug concentration and 50 μL of stem cell culture medium were added into each well and the plates were further incubated at 37° C., 5% CO2 for 72 hrs. 3 μL of the respective drug concentration was added with 50 μL of stem cell culture medium again after incubation and plates were incubated again for 72 hrs at 37° C., 5% CO2. Number of primary spheres formed for each concentration was counted. A comparative graph of number of spheres formed was plotted against the concentration and the growth curve was compared with the positive control.

The test system of a further assay is spheres of PC3. As to the kind of experiment: In vitro sphere-forming assay, PC3 in Prostosphere media. The conditions noted are these: 2000 cells/well, n = 6 ± S.D.
Description: as §7, §8
Prostosphere Media Preparation (For 100 mL):1 g methyl cellulose autoclaved with magnetic stirrer, Plain media (Prostate Epithelial Basal Medium), 100 mL added and dissolved, under magnetic stirring. After complete dissolution, add: Insulin-40 μL, B27-2 mL, EGF-80 μL, Penstrep-1 ml.
as §9

Another assay has as its system MCF7. As to the kind of experiment: MTT antiproliferative assay, MCF7. The conditions noted are these: MCF-7 breast cell line, 48 hrs drug incubation. On the procedure: as §1, §2, §3
Setting [5] is: Homo sapiens, MDA-MB-231, 168 h.

In the case of `Cl.c1ccc(COc2ccc(-c3ccc4c(c3)OCO4)c3cccnc23)cc1` [Formula XIII, 5-(benzo[d][1,3]dioxol-5-yl)-8-(benzyloxy)quinoline hydrochloride], the IC50 was determined as 8 µM in the assay with MDAMB231 [1] (Homo sapiens, MDA-MB-231); 4.33 µM with PC3 [2] (Homo sapiens, PC-3); 4.06 µM with DU145 (Homo sapiens, DU-145); 2.68 µM in the assay with MDAMB231 [3] (setting [5]); 6.32 µM in the assay with PC3 [4] (Homo sapiens, PC-3, 168 h). Also, the “3D sphere count of MDAMB231” value is 45(±2) with spheres of MDAMB231 (drug conc 0.025 uM); 36(±3) in the assay with spheres of MDAMB231 (drug conc 0.25 uM); 27(±2) in the assay on spheres of MDAMB231 (drug conc 2.5 uM); 13(±2) with spheres of MDAMB231 (drug conc 25 uM); 0(±0) with spheres of MDAMB231 (drug conc 250 uM). Further, the “3D sphere count of PC3” value in the assay on spheres of PC3 (drug conc 0.025 uM) is on record as 41(±7); in the assay on spheres of PC3 (drug conc 0.25 uM) it was 39(±5); in the assay on spheres of PC3 (drug conc 2.5 uM) it was 27(±3); with spheres of PC3 (drug conc 25 uM), 14(±1); with spheres of PC3 (drug conc 250 uM), 0(±0).

`O=C(Oc1ccc(-c2ccc3c(c2)OCO3)c2ccccc12)C(c1ccccc1)C1CCCC1` (stereo not drawn) [Formula IX, 1-(benzo[d][1,3]dioxol-5-yl)naphthalen-4-yl 2-cyclopentyl-2-phenylacetate]: the IC50 in the assay on MCF7 (Homo sapiens, MCF7) came to 5.24 µM; in the assay on MDAMB231 [1] (Homo sapiens, MDA-MB-231) it was 5.26 µM; with PC3 [2] (Homo sapiens, PC-3) it was 5.62 µM; with DU145 (Homo sapiens, DU-145), 8.91 µM; with MDAMB231 [3] (setting [5]), 2.12 µM; with PC3 [4] (Homo sapiens, PC-3, 168 h), 4.81 µM. The “3D sphere count of MDAMB231” value in the assay with spheres of MDAMB231 (drug conc 0.025 uM) is recorded as 52(±4); in the assay with spheres of MDAMB231 (drug conc 0.25 uM), 40(±5); with spheres of MDAMB231 (drug conc 2.5 uM), 26(±3); with spheres of MDAMB231 (drug conc 25 uM) it was 22(±3); in the assay on spheres of MDAMB231 (drug conc 250 uM), 0(±0). In addition, the “3D sphere count of PC3” value with spheres of PC3 (drug conc 0.025 uM) is on record as 60(±7); with spheres of PC3 (drug conc 0.25 uM), 44(±4); in the assay on spheres of PC3 (drug conc 2.5 uM), 37(±5); in the assay on spheres of PC3 (drug conc 25 uM), 31(±3); with spheres of PC3 (drug conc 250 uM), 0(±0).

Turning to `O=C(Nc1ccc(-c2ccc3c(c2)OCO3)c2ccccc12)c1ccco1` [Formula XII, N-(1-(benzo[d][1,3]dioxol-5-yl)naphthalen-4-yl)furan-2-carboxamide], the IC50 with MCF7 (Homo sapiens, MCF7) is 4.95 µM; with MDAMB231 [1] (Homo sapiens, MDA-MB-231), 3.37 µM; in the assay on PC3 [2] (Homo sapiens, PC-3), 19.6 µM; with DU145 (Homo sapiens, DU-145) it was 9.82 µM; in the assay on MDAMB231 [3] (setting [5]), 2.14 µM; with PC3 [4] (Homo sapiens, PC-3, 168 h) it was 3.36 µM. Also, the “3D sphere count of MDAMB231” value is given as 31(±2) with spheres of MDAMB231 (drug conc 0.025 uM); 27(±2) with spheres of MDAMB231 (drug conc 0.25 uM); 17(±2) in the assay with spheres of MDAMB231 (drug conc 2.5 uM); 8(±1) with spheres of MDAMB231 (drug conc 25 uM); 0(±0) in the assay on spheres of MDAMB231 (drug conc 250 uM). Moreover, the “3D sphere count of PC3” value is given as 37(±3) with spheres of PC3 (drug conc 0.025 uM); 28(±3) in the assay with spheres of PC3 (drug conc 0.25 uM); 23(±2) with spheres of PC3 (drug conc 2.5 uM); 15(±2) in the assay on spheres of PC3 (drug conc 25 uM); 0(±0) in the assay with spheres of PC3 (drug conc 250 uM).

Turning to `N.N.[Cl][Pt][Cl]` [Cisplatin, reference compound], the IC50 with MCF7 is 29.6 µM and 32.4 µM and 33 µM; in the assay on MDAMB231 [1] it was 32.7 µM and 38.5 µM and 37 µM and 35.5 µM; in the assay on PC3 [2] it was 28 µM and 29 µM and 40.7 µM and 35.8 µM and 36.4 µM; in the assay on DU145 it was 23.9 µM and 43 µM and 34.4 µM and 35.5 µM; with MDAMB231 [3] it was 41.7 µM and 24.8 µM and 37.3 µM and 23.9 µM; in the assay on PC3 [4], 20.6 µM and 21.3 µM and 23.8 µM and 21.9 µM. The “3D sphere count of MDAMB231” value with spheres of MDAMB231 (drug conc 0.025 uM) is 50(±3) and 89(±4) and 62(±6) and 67(±2); in the assay with spheres of MDAMB231 (drug conc 0.25 uM), 42(±3) and 69(±7) and 48(±2) and 58(±3); with spheres of MDAMB231 (drug conc 2.5 uM), 35(±2) and 51(±5) and 43(±2) and 46(±3); in the assay with spheres of MDAMB231 (drug conc 25 uM), 31(±3) and 38(±8) and 37(±4) and 35(±2); with spheres of MDAMB231 (drug conc 250 uM), 18(±2) and 23(±5) and 31(±4) and 26(±3). For the same molecule, the “3D sphere count of PC3” value in the assay on spheres of PC3 (drug conc 0.025 uM) was 58(±4) and 47(±4) and 62(±5) and 45(±2); in the assay on spheres of PC3 (drug conc 0.25 uM) it was 47(±5) and 49(±7) and 55(±5) and 42(±3); in the assay with spheres of PC3 (drug conc 2.5 uM), 40(±3) and 41(±4) and 46(±2) and 39(±2); with spheres of PC3 (drug conc 25 uM), 32(±2) and 31(±5) and 33(±3) and 32(±3); with spheres of PC3 (drug conc 250 uM) it was 25(±3) and 30(±5) and 22(±4) and 21(±2).

For `O[C@@H]1[C@H](O)COC(Oc2ccc(-c3ccc4c(c3)OCO4)c3ccccc23)[C@H]1O` (stereo partly drawn) [Formula XI, (3S,4R,5R)-2-(1-(benzo[d][1,3]dioxol-5-yl)naphthalen-4-yloxy)-tetrahydro-2H-pyran-3,4,5-triol], the IC50 in the assay with MCF7 (Homo sapiens, MCF7) amounted to 4.36 µM; in the assay on MDAMB231 [1] (Homo sapiens, MDA-MB-231), 9.77 µM; in the assay with PC3 [2] (Homo sapiens, PC-3), 4.16 µM; with DU145 (Homo sapiens, DU-145), 10.2 µM; in the assay with MDAMB231 [3] (setting [5]) it was 2.08 µM; in the assay with PC3 [4] (Homo sapiens, PC-3, 168 h), 18.8 µM.
